Assay results as given in PubChem BioAssay AID1350 (Sanford-Burnham Center for Chemical Genomics, 2008).
Activity calls are given as the source filed them.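 The calls were made as follows: active = wells where survival under tumor necrosis factor attack stays above 50% of untreated control at 25 µM; inactive = the rest.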

System: CSM14.1 TNF/CHX-induced death, ATPlite luminescence, 24 h
Assay: protection against TNF-triggered CSM14.1 death, SAR follow-up, selectivity assay for ER stress death inhibitor project, cell-based, undifferentiated CSM14.1, ATP luminescence (AID 1350)
Conditions: at 25 µM; hits give high values

SMILES	survival
CCCOc1ccc(C2Nc3ccccc3NC3=C2C(=O)CC(c2ccc(OC)c(OC)c2)C3)cc1 (stereo unspecified)	45% (inactive)
CCOc1cc(C2Nc3ccccc3NC3=C2C(=O)CC(c2ccc(OC)cc2)C3)cc(Cl)c1O (stereo unspecified)	33% (inactive)
CCOc1cccc(C2Nc3ccccc3NC3=C2C(=O)CC(c2ccc(OC)cc2)C3)c1 (stereo unspecified)	40% (inactive)
CC1(C)CC(=O)C2=C(C1)Nc1ccccc1NC2c1ccc(-c2ccccc2)cc1 (stereo unspecified)	46% (inactive)
COc1ccc(C2CC(=O)C3=C(C2)Nc2ccccc2NC3c2cccc(Br)c2)cc1OC (stereo unspecified)	38% (inactive)
COc1ccc(C2CC(=O)C3=C(C2)Nc2ccccc2NC3c2cccc(C(F)(F)F)c2)cc1OC (stereo unspecified)	37% (inactive)
CSc1ccc(C2Nc3ccccc3NC3=C2C(=O)CC(c2ccccc2)C3)cc1 (stereo unspecified)	43% (inactive)
COc1ccc(C2CC(=O)C3=C(C2)Nc2ccccc2NC3c2cc(C)ccc2C)cc1 (stereo unspecified)	39% (inactive)
O=C1CC(c2ccccc2)CC2=C1C(c1c(F)cccc1Cl)Nc1ccccc1N2 (stereo unspecified)	32% (inactive)
COc1ccc(C2CC(=O)C3=C(C2)Nc2ccccc2NC3c2cccc(Oc3ccccc3)c2)cc1OC (stereo unspecified)	39% (inactive)
COc1ccc(C2CC(=O)C3=C(C2)Nc2ccccc2NC3c2ccccc2C(F)(F)F)cc1OC (stereo unspecified)	37% (inactive)
